# In patent publication US20250152488A1, “SKIN BRIGHTENING COMPOSITION” (Conopco, Inc., d/b/a UNILEVER, priority 2022, published 2025):
# Tested on: Human primary melanocytes
# Test: Melanin synthesis on melanocyte cells in vitro (melanin content assay)
# Type: cell-based
# Details: 72 hrs treatment with actives in MGM media at the stated wt %; absorbance 405 nm
# Protocol: Experiments were carried out on melanocyte cells using the actives as shown in Table-3 using the procedure given below; • 1. Human primary melanocytes were seeded at a density of 5×10^4 per well into a 24 well plate with fresh melanocyte growth media (MGM). • 2. Post 24 hrs seeding, cells were treated with actives in fresh MGM media and incubated for 72 hrs at 5% CO2/37° C. incubator. • 3. After 72 h of incubation, melanin estimation was done. Melanin content estimation: Cell culture spent media was removed and cells were washed once with 200 μl of 1×PBS. […] Then 100 μl of this lysate was transferred to a fresh 384 well plate and absorbance was measured spectrophotometric at 405 nm with a micro plate reader.
row,Compound,Melanin synthesis (% of control)
1,"CC(O)CN(CCN(CC(C)O)CC(C)O)CC(C)O (stereo not drawn) [D, tetrahydroxypropyl ethylenediamine]",91 % of control
2,"CCCCCCC(O)CCCCCCCCCCC(=O)O (stereo not drawn) [F, 12-hydroxystearic acid]",98 % of control
3,"NC(=O)c1cccnc1 [E, niacinamide]",97 % of control
